Results from paper PMC5888987 (Carcinogenesis, 2018).

Columns and labels:
Assay type in all cases: biochemical
DNMT1 = DNMT1 (Homo sapiens, UniProt P26358); experiment: AlphaScreen methyltransferase assay with […] SAM
DNMT3A = DNMT3A (Homo sapiens, UniProt Q9Y6K1); experiment: AlphaScreen methyltransferase assay with […] SAM
DNMT3B = DNMT3B (Homo sapiens, UniProt Q9UBC3); experiment: AlphaScreen methyltransferase assay with […] SAM
mTOR = mTOR (Homo sapiens, UniProt P42345); experiment: FRET-based Z-LYTE kinase assay

Sequence of DNMT3A (Q9Y6K1 whole entry, looked up): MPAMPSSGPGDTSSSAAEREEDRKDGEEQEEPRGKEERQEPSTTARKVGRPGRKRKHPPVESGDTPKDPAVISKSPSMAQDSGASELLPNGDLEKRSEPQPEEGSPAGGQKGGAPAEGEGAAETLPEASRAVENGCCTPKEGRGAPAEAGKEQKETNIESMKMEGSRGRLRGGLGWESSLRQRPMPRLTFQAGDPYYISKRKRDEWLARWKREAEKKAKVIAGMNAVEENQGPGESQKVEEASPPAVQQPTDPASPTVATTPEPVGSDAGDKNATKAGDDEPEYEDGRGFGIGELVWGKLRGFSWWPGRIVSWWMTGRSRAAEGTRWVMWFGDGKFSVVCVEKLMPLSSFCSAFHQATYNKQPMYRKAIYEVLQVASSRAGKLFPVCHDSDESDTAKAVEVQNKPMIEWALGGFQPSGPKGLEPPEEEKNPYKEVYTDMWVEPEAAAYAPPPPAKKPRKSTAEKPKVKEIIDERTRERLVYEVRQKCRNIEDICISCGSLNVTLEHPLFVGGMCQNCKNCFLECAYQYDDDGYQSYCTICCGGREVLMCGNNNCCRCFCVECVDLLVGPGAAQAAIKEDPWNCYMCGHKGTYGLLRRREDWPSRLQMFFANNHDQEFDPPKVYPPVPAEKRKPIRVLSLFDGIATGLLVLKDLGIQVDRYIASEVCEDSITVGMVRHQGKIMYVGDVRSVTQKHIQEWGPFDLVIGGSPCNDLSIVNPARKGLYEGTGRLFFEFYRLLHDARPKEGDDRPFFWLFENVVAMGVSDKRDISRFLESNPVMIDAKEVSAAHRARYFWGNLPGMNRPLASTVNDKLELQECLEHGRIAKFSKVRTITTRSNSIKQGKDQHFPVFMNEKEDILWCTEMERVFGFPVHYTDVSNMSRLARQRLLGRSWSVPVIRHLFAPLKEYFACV
Sequence of DNMT1 (P26358 whole entry): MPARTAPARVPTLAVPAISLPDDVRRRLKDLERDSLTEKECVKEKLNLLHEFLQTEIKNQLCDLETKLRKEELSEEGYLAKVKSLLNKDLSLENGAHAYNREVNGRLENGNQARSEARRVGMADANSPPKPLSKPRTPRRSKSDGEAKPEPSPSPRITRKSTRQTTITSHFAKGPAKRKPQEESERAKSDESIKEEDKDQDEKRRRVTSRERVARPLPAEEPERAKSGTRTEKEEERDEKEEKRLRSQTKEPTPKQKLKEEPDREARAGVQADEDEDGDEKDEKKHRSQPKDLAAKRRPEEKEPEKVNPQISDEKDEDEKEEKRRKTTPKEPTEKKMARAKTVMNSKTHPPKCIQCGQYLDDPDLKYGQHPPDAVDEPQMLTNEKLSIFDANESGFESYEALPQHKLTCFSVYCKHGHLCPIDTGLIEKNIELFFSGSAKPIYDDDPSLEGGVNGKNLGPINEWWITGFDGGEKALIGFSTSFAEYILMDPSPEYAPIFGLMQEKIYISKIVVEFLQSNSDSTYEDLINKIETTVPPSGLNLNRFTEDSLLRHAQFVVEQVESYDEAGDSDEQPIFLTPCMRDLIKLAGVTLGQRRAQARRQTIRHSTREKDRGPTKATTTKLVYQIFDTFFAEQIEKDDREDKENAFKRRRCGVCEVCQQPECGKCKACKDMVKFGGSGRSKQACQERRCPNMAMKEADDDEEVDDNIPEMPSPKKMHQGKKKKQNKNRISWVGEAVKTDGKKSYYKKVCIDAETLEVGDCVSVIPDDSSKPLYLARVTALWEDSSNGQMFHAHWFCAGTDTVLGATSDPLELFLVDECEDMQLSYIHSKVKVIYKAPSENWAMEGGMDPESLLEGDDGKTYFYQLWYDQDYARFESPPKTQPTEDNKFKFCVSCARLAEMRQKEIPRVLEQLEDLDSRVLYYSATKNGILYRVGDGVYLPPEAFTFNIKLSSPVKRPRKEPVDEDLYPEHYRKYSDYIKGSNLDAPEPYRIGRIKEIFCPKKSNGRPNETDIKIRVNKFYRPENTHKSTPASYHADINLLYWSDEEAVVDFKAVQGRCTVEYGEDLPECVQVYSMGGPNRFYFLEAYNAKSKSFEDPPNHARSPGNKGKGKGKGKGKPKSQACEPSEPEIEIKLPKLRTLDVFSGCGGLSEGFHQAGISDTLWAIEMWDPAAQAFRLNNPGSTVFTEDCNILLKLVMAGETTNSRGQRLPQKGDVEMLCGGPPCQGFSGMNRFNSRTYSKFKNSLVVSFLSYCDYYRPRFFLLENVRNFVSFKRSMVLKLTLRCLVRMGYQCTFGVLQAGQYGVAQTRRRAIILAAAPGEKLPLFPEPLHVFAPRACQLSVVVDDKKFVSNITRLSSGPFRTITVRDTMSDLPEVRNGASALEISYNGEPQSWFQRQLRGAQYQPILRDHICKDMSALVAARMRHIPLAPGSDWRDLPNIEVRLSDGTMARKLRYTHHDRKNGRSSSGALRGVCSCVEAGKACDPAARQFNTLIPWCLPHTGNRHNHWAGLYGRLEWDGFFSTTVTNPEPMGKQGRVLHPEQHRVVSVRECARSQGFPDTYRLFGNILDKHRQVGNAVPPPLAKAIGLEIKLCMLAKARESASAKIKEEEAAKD

SMILES	IC50 (DNMT1) [µM]	IC50 (DNMT3A) [µM]	IC50 (DNMT3B) [µM]	IC50 (mTOR) [nM]
C/C=C(/C=O)[C@@H](CC=O)CC(=O)OCCc1ccc(O)c(O)c1 [DOA, decarboxymethyl oleuropein aglycone]	11.5	5.7	5.2	2600
Nc1ncnc2c1ncn2[C@@H]1O[C@H](CSCC[C@H](N)C(=O)O)[C@@H](O)[C@H]1O [SAH, S-adenosyl-l-homocysteine, reference compound]		5.8	2.8	
